In article PMC10239507, “Development of allosteric and selective CDK2 inhibitors for contraception with negative cooperativity to cyclin binding” (Nature Communications, 2023):
“Also recorded” adds a separate entry of the source. Values belong to the molecule of their own block, whether it stands above or below them.

Experiments:
[1] = biological target: T1, CDK2 (C118A C177S A93C R157C) (Homo sapiens, UniProt P24941, A93C/C118A/C177S/R157C); assay: Intramolecular FRET assay of CDK2 activation loop position; type: binding
T1 construct: made in house; cyclin A: BL21(DE3)pLysS

CDK/cyclin complexes = assay: Commercial CDK/cyclin kinase activity panel (Reaction Biology); type: biochemical; conditions: concentration well above its KD
human CDK2 (1-298) = human CDK2 (1-298) (Homo sapiens, UniProt P24941); assay: Isothermal titration calorimetry (ITC)
GST-tagged CDK2 = biological target: T2, GST-tagged CDK2 (Homo sapiens, UniProt P24941); assay: Surface plasmon resonance (SPR), CDK2; type: binding
T2 construct: The gene encoding human CDK2 (1-298) was custom-synthesized; made in house; host or cells: E. coli BL21 DE3 RIPL

Molecule: O=C(O)c1cc(C(F)(F)F)ccc1NCCc1c[nH]c2cc(Cl)ccc12 [Compound 4, 2-((2-(6-Chloro-1H-indol-3-yl)ethyl)amino)−5-(trifluoromethyl)benzoic Acid]
Kd [1]: 280 nM
inhibition of CDK/cyclin complexes (CDK/cyclin complexes): poorly inhibits; also recorded: does not substantially inhibit any CDK/cyclin complex
Kd (human CDK2 (1-298)): 31 nM
T∆S (human CDK2 (1-298); ITC, 25 °C): 4.8 kcal/mol
n (binding stoichiometry) (human CDK2 (1-298); ITC, 25 °C): 1.39
∆H (human CDK2 (1-298); ITC, 25 °C): -5.5 kcal/mol

fold slower dissociation rate than the allosteric inhibitors (GST-tagged CDK2): ≥ 10 fold
Molecule: cyclin: Bovine cyclin A (171-432 with a C-terminal 6His tag)
